Results from publication PMC12108418, “Broad-Spectrum Gramicidin S Derivatives with Potent Activity Against Multidrug-Resistant Gram-Negative ESKAPE Pathogens” (Antibiotics, 2025).
In brackets after ≈: the same amount, converted by molar mass. Where two headings read alike, the source gives them in different places. Square brackets hold non-standard residues; d marks the D form. Peptide text beside a SMILES is read from it. Tle = CC(C)(C)[C@H](N)C(=O)O; Orn = NCCC[C@H](N)C(=O)O; Abu = CC[C@H](N)C(=O)O

How the values were obtained:
[1] = Analytical RP-HPLC retention time as measure of hydrophobicity; format: physicochemical; conditions: measure of global hydrophobicity, Phenomenex Kinetex 2.6 µm C18 (150 × 4.6 mm), 0.7 mL/min, ACN/TFA (100:0.0008) and water/TFA (100:0.001)
Description: Peptide purification was carried out via preparative RP-HPLC on an Agilent 1260 Infinity II system (Santa Clara, CA, USA) equipped with a 21.2 × 150 mm Agilent ZORBAX Eclipse Plus C18 column, operating at a flow rate of 25 mL/min. The mobile phase consisted of acetonitrile containing 0.0008% trifluoroacetic acid (v/v) as the organic phase and water with 0.001% TFA as the aqueous phase. […] Analytical HPLC analysis was performed on a Hewlett-Packard Series 1100 instrument using a Phenomenex (Torrance, CA, USA) Kinetex C18 column (150 mm × 4.6 mm, 2.6 µm particle size), under identical solvent conditions, to confirm purity.
HRMS of peptide 1. […] HRMS of peptide 2. […] HRMS of peptide 3. […] HRMS of peptide 4. […] HRMS of peptide 5. […] HRMS of peptide 6. […] HRMS of peptide 7. […] HRMS of peptide 8. […] HRMS of peptide 9. […] HRMS of peptide 10. […] HRMS of peptide 11. […] HRMS of peptide 12. […] HRMS of peptide 13. […] HRMS of peptide 14. […] HRMS of peptide 15. […] HRMS of peptide 16. […] HRMS of peptide 17. […] HRMS of peptide 18. […] HRMS of peptide 19.

[2] = system: Escherichia coli (ATCC 25922); format: cell-based
Description: (§1) The antibacterial efficacy of peptides was assessed using the broth microdilution method in accordance with Clinical and Laboratory Standards Institute (CLSI) guidelines (M07-A10, 2015 [33]). The minimum inhibitory concentrations (MICs) were determined against Escherichia coli (ATCC 25922), Klebsiella pneumoniae (ATCC 33495), Pseudomonas aeruginosa (ATCC 27853), Acinetobacter baumannii (ATCC 19606), and Staphylococcus aureus (ATCC 29213 and ATCC USA300). Bacterial suspensions were standardised to 5 × 10^4 colony-forming units (CFUs)/well in cation-adjusted Mueller–Hinton broth (CAMHB). Peptides were dissolved in 25% DMSO and serially diluted two-fold across 96-well plates, reaching final concentrations ranging from 256 to 0.125 µg/mL. The wells were inoculated, ensuring a final volume of 100 µL per well, with a DMSO concentration of 1% (v/v) to minimise solvent interference. […] Vancomycin was used as the positive control for S. aureus. Polymyxin B served as the positive control for Gram-negative bacteria. CAMHB with 1% (v/v) DMSO (without peptides) was used as the negative control. All experiments were performed in triplicate (n = 3). Bacterial isolates were stored in tryptone soy broth with 30% glycerol at −80 °C for long-term preservation.

[3] = system: Pseudomonas aeruginosa (ATCC 27853); format: cell-based
Description: as §1

[4] = system: Acinetobacter baumannii (ATCC 19606); format: cell-based
Description: as §1

[5] = system: Klebsiella pneumoniae (ATCC 33495); format: cell-based
Description: as §1

human red blood cells = experiment: Haemolysis assay; format: cell-based; conditions: 1% human RBC suspension in HEPES-buffered saline pH 7.4, pooled from three donors, 0.125 to 256 μg/mL, 1 h, 37 °C, absorbance 540 and 410 nm, triplicate (n = 3)
Description: To evaluate haemolytic activity, fresh human blood was collected from three unrelated healthy volunteers to ensure donor variability. Red blood cells (RBCs) were separated by centrifugation at 3000 rpm for 5 min at 4 °C, followed by washing in HEPES-buffered saline (HBS; 150 mM NaCl, 5 mM HEPES-NaOH, pH 7.4). The samples were pooled, mixed, and all experiments were performed in triplicate to enhance reproducibility. Blood samples were used within 48 h of collection to preserve erythrocyte integrity. A 1% RBC suspension in HBS (200 μL) was distributed into 96-well plates, and peptide solutions (100 μL) were added to reach final concentrations ranging from 0.125 to 256 μg/mL. After a 1 h incubation at 37 °C, the plates were centrifuged (3000 rpm, 5 min, 4 °C), and 80 μL of each supernatant was transferred to a fresh microplate. Absorbance readings were taken at 540 nm and 410 nm to assess protein content and haemoglobin release, respectively. HBS served as a negative control and 1% Triton X-100 as a positive control (n = 3).

[6] = broth microdilution in CAMHB, 5 × 10^4 CFU/well, 1% DMSO, 37 °C, 16–20 h, 256 to 0.125 µg/mL, triplicate (n = 3)

CC[C@@H]1NC(=O)[C@@H]2CCCN2C(=O)[C@@H](CCCNC(=N)N)NC(=O)[C@H](CC(C)C)NC(=O)[C@H](CCCN)NC(=O)[C@H](C(C)C)NC(=O)[C@@H]2CCCN2C(=O)[C@@H](Cc2ccccc2)NC(=O)[C@H](CC(C)C)NC(=O)[C@H](CCCNC(=N)N)NC1=O [Peptide 17] (cyclo([Abu]RL[dF]PV[Orn]L[dR]P))
RP-HPLC retention time tR [1]: 16.32 min
MIC E. coli ATCC 25922 ([2]; ATCC 25922): 32 µg/mL (≈ 27.2 µM)
MIC P. aeruginosa ATCC 27853 [3, 6]: 64 µg/mL (≈ 54.3 µM)
MIC A. baumannii ATCC 19606 ([4]; ATCC 19606): 16 µg/mL (≈ 13.6 µM)
MIC K. pneumonia ATCC 33495 ([5]; ATCC 33495): 32 µg/mL (≈ 27.2 µM)

CC(C)C[C@@H]1NC(=O)[C@H](CCCN)NC(=O)[C@H](C(C)(C)C)NC(=O)[C@@H]2CCCN2C(=O)[C@@H](Cc2ccccc2)NC(=O)[C@H](CC(C)C)NC(=O)[C@H](CCCN)NC(=O)[C@H](C(C)(C)C)NC(=O)[C@@H]2CCCN2C(=O)[C@@H](Cc2ccccc2)NC1=O [Peptide 13] (cyclo(L[dF]P[Tle][Orn]L[dF]P[Tle][Orn]))
MIC E. coli ATCC 25922 [2, 6]: 32 µg/mL (≈ 27.4 µM)
MIC P. aeruginosa ATCC 27853 [3, 6]: 128 µg/mL (≈ 109 µM)
MIC A. baumannii ATCC 19606 [4, 6]: 32 µg/mL (≈ 27.4 µM)
MIC K. pneumonia ATCC 33495 [5, 6]: 256 µg/mL (≈ 219 µM)
HC50 (50% haemolytic concentration) (human red blood cells): 6.26 ± 0.35 µg/mL

CC(C)C[C@@H]1NC(=O)[C@H](CCCN)NC(=O)[C@H](C(C)C)NC(=O)[C@@H]2CCCN2C(=O)[C@@H](Cc2ccccc2)NC(=O)[C@H](CC(C)C)NC(=O)[C@H](CCCNC(=N)N)NC(=O)[C@H](C(C)C)NC(=O)[C@@H]2CCCN2C(=O)[C@@H](CCCNC(=N)N)NC1=O [Peptide 15] (cyclo(L[dF]PV[Orn]L[dR]PVR))
RP-HPLC retention time tR [1]: 16.47 min
MIC E. coli ATCC 25922 ([2]; ATCC 25922): 16 µg/mL (≈ 13.4 µM)
MIC P. aeruginosa ATCC 27853 [3, 6]: 32 µg/mL (≈ 26.8 µM)
MIC A. baumannii ATCC 19606 ([4]; ATCC 19606): 8 µg/mL (≈ 6.71 µM)
MIC K. pneumonia ATCC 33495 ([5]; ATCC 33495): 16 µg/mL (≈ 13.4 µM)

CC(C)C[C@@H]1NC(=O)[C@H](CCCN)NC(=O)[C@H](C(C)(C)C)NC(=O)[C@@H]2CCCN2C(=O)[C@@H](Cc2ccccc2)NC(=O)[C@H](CC(C)C)NC(=O)[C@H](CCCN)NC(=O)[C@H](C(C)(C)C)NC(=O)[C@@H]2CCCN2C(=O)[C@@H](CCCNC(=N)N)NC1=O [Peptide 19] (cyclo(L[dF]P[Tle][Orn]L[dR]P[Tle][Orn]))
RP-HPLC retention time tR [1]: 17.15 min
MIC E. coli ATCC 25922 ([2]; ATCC 25922): 16 µg/mL (≈ 13.6 µM)
MIC P. aeruginosa ATCC 27853 ([3]; ATCC 27853): 16 µg/mL (≈ 13.6 µM)
MIC A. baumannii ATCC 19606 ([4]; ATCC 19606): 4 µg/mL (≈ 3.39 µM)
MIC K. pneumonia ATCC 33495 ([5]; ATCC 33495): 32 µg/mL (≈ 27.2 µM)
